Experimental data reported in patent US9376470B2, “Polypeptide having angiogenesis-inducing activity and antibacterial activity, and use thereof for medical purposes” (FunPep Inc., priority 2008, dated 2016).
Peptide text beside a SMILES is read from it.

Key:
[1] = tested on: Staphylococcus epidermidis JCM 2414; assay: microbe, parasite or virus in culture; assay type: cell-based; conditions: 37° C., 20 hours
Method: ATP (%) of the antibacterial activity was measured in the same manner as mentioned above, and the “minimum inhibitory concentration (MIC)” was measured as follows. MIC is the lowest concentration of an agent that may inhibit the growth of a bacterium. MIC is used as a parameter for the efficacy of an antibacterial agent, for the strength of bacterial sensitivity, or the like. The bacteria can grow (proliferate) when the concentration is not higher than MIC, and cannot grow when the concentration is higher than MIC. […] (CLSI), but, in this Example, its measurement was carried out by a broth microdilution method in accordance with “M100-S17/M7-A7” (Performance Standards for Antimicrobial Susceptibility Testing; Seventeenth Informational Supplement, Vol. 27 No. 1) published by CLSI on January, 2007. That is, sensitivity test of agents was carried out using a microtiter plate or test tubes. The bacteria were cultured in the liquid media for 4 to 6 hours, and thereafter absorbances at A600 were measured. Bacterial suspensions were diluted with Mueller-Hinton broth (MHB) according to McFarland #0.5. Each strain was added so as to attain about 10^5 CFU/ml (final concentration). Each peptide was prepared to an optional concentration, and the solutions were serially diluted from the concentration. The polypeptide at each concentration stage was added to a microplate or test tubes, and the bacterial suspension was added thereto. […] The plate was incubated at 37° C. for 20 hours, the lowest concentration where bacterial growth was inhibited was regarded as the minimum inhibitory concentration. With respect to each strain, Escherichia coli: ATCC 25922 (Escherichia coli ATCC 25922), Pseudomonas aeruginosa: ATCC 27853 (Pseudomonas aeruginosa ATCC 27853), Staphylococcus aureus: ATCC29213 (Staphylococcus aureus ATCC29213), Klebsiella pneumoniae: JCM 1662 (Klebsiella pneumoniae JCM 1662), enterobacteria (1): JCM 1232 (Enterobacter cloacae JCM 1232), enterobacteria (2): JCM 1235 (Enterobacter aerogenes JCM 1235), and Staphylococcus epidermidis: JCM 2414 (Staphylococcus epidermidis JCM 2414), were used. […] As the concentrations of the agents in ATP assay, the concentrations as described in the Tables were used.

[2] = tested on: human vascular endothelial cells and fibroblast cells (co-culture); assay: Lumen formation with angiogenesis kit KZ-1000 (section 7); assay type: cell-based; conditions: for The Area of Lumina (relative value, negative control as 100) / The Length of Lumina (relative value, negative control as 100): day 11
Method: Using an angiogenesis kit available from KURABO […] LTD. (Product No.: KZ-1000), lumen formation by the polypeptides was evaluated. Vascular endothelial growth factor A (VEGF-A) as a positive control, and polypeptide-free, unstimulated group as a negative control, were used.
Using a special medium for angiogenesis which was attached to the kit, each polypeptide was prepared such that the concentration thereof was respectively 0.5, 2.5 and 10 μg/mL. To a 24-well plate in which cells were plated (the cells were those obtained by co-culturing human vascular endothelial cells and fibroblast cells at an optimum concentration) which was attached to the kit, the special medium for angiogenesis containing each polypeptide was added, and the cells were cultured at 37° C. under 5% CO2. The medium was replaced with a medium containing the same additive on day 4, day 7 and day 9 of culture. On day 11 from the beginning of the culture, staining was performed using a kit for staining lumina (for CD31 antibody staining) according to the following procedure.
The media were removed, and washing was performed with Dulbecco's phosphate buffered saline (PBS(−)). Thereafter, ice-cooled 70% ethanol was added to the plate, and the cells were fixed. Each well was washed with a blocking solution (Dulbecco's phosphate buffered saline (PBS(−)) containing 1% BSA). To each well, 0.5 mL of the primary antibody for CD31 staining (mouse anti-human CD31 antibody) 4000-fold diluted with the blocking solution was added, and then the plate was incubated for 60 minutes at 37° C. After the completion of the incubation, each well was washed totally 3 times with 1 mL of the blocking solution. Then, 0.5 mL of the secondary antibody solution (goat anti-mouse IgG/alkaline phosphatase conjugate) 500-fold diluted with the blocking solution was added to each well. The plate was incubated for 60 minutes at 37° C., and thereafter each well was washed 3 times with 1 mL of distilled water. During that period, 2 tablets of BCIP/NBT were dissolved into distilled water, and the obtained solution was filtered through a filter having a pore size of […] to prepare a substrate solution. To each well, 0.5 mL of the prepared BCIP/NBT substrate solution was added, and the plate was incubated at 37° C. until the lumina turned to deep purple (typically for 5-10 minutes). After the completion of the incubation, each well was washed 3 times with 1 mL of distilled water. After washing, the washing solution was removed by aspiration, and the plate was left to stand and dry naturally. After drying, photographs of each well were taken under a microscope.
Each of the obtained images was quantified using an angiogenesis quantification software. The area and length of formed lumina observed in each visual field were measured on the basis of the scale of an angiogenesis quantification software available from KURABO […] LTD. (angiogenesis quantification software Ver 1.0), and evaluated on the basis of the ratio of the area or length of polypeptide-containing groups relative to the area or length of the negative control group.

Crl:CD (SD) rats = assay: Ability to form granulation tissue in paper disc model; assay type: in vivo, rat; conditions: 10 μg/disc (250 μg/mL×40 μl/disc), subcutaneous paper disc, eight days later
Excerpt: Then, the ability to form granulation tissue of five polypeptides SR-1 to 5 in vivo was studied. […] The prepared paper discs were embedded subcutaneously into the back of Crl:CD (SD) rats (male, 9-week old, obtained from Charles River Laboratories Japan, Inc.). Eight days later, the paper discs were taken out, and the granulation tissues around the paper discs were collected to determine their wet weight.

[3] = assay type: in vitro ADME; conditions: human serum, 37° C.
Method: Then, the stability of five polypeptides SR-1 to 5 in serum was evaluated.
In human serum (purchased from KAC Co., Ltd.), or in rat serum obtained by collecting blood from a rat, then leaving the collected blood to stand at room temperature followed by centrifugation, each of the peptides was dissolved so as to attain a final concentration of 500 μg/mL, and the obtained solutions were left to stand at 37° C. After leaving to stand for 10 min or 30 min or 60 min, these solutions were subjected to HPLC chromatogram analysis to detect peaks of the decomposition products, and calculate the ratio of the concentration of the peptides which remained in the solutions relative to the starting concentration. In addition, the half-lives of the peptides in serum were also calculated.
HPLC chromatogram analysis conditions are as follows.

SMILES: CC[C@H](C)[C@H](NC(=O)[C@H](CC(C)C)NC(=O)[C@H](CCCCN)NC(=O)[C@H](CC(C)C)NC(=O)[C@@H](N)CCSC)C(=O)N[C@@H](Cc1ccccc1)C(=O)N[C@@H](CC(C)C)C(=O)N[C@@H](Cc1c[nH]cn1)C(=O)N[C@@H](CCCNC(=N)N)C(=O)N[C@@H](CC(C)C)C(=O)N[C@@H](CCCCN)C(=O)N[C@@H](CCCNC(=N)N)C(=O)N[C@@H](CCSC)C(=O)N[C@@H](CCCNC(=N)N)C(=O)N[C@@H](CCCCN)C(=O)N[C@@H](CCCNC(=N)N)C(=O)N[C@@H](CC(C)C)C(=O)N[C@@H](CCCCN)C(=O)N[C@@H](CCCNC(=N)N)C(=O)N[C@@H](CCCCN)C(=O)O [SR-1] (H-MLKLIFLHRLKRMRKRLKRK-OH; N-terminus assumed)
- MIC Staphylococcus epidermidis [1]: 128< μg/mL
- ability to form lumina ([2]; 0.5, 2.5 and 10 μg/mL): high ability to form lumina
- The Area of Lumina (relative value, negative control as 100) ([2]; polypeptide 0.5 μg/mL): 94.6
- The Length of Lumina (relative value, negative control as 100) ([2]; polypeptide 0.5 μg/mL): 97.4
- The Area of Lumina (relative value, negative control as 100) ([2]; polypeptide 10 μg/mL): 156.6
- The Length of Lumina (relative value, negative control as 100) ([2]; polypeptide 10 μg/mL): 149.5
- granulation tissue weight (Crl:CD (SD) rats): largest increase in the granulation tissue weight
- half-life [3]: 4 min
